The results in this text go back to ChEMBL document CHEMBL1201862, “PubChem BioAssay data set” (2004).

Test systems include A549; ACHN; CAKI-1; CCRF-CEM; HCT-116; KM12; LOX IMVI; MCF7; MDA-MB-231; MOLT-4; Malme-3M; NCI-H23; NCI-H522; OVCAR-8; SK-MEL-2; SK-OV-3; SNB-75; SR; T47D; UACC-62.
Assay in all cases: NCI-60 cell line screen, 48 h

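In this assay, cells in 96-well plates receive the compound at five concentrations for 48 hours. Endpoints are linearly interpolated between the surrounding concentrations. The concentration for 50% growth inhibition is given as GI50.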 Calls of active or inactive are those of the source. No stated cut-off is given here; in the data, active = GI50 up to about 1.1 µM and inactive = higher.

`Cc1ccc(-c2cn3c(nc4ccccc43)c(-c3ccccc3)n2)cc1`: the GI50 in the assay on A549 was > 100 µM (inactive); in the assay on ACHN, 34 µM (inactive); in the assay on CAKI-1, 37.7 µM (inactive); in the assay with CCRF-CEM it was > 100 µM (inactive); in the assay with HCT-116, 75 µM (inactive); in the assay with KM12 it was > 100 µM (inactive). Besides, the GI50 in the assay on LOX IMVI was > 100 µM (inactive); in the assay with MCF7, 27.7 µM (inactive); with MDA-MB-231, > 100 µM (inactive); in the assay on MOLT-4, > 100 µM (inactive); in the assay on Malme-3M, > 83 µM (inactive); in the assay on NCI-H23, 24 µM (inactive). The GI50 in the assay with NCI-H522 was 20.5 µM (inactive); with OVCAR-8 it was 27.9 µM (inactive); in the assay with SK-MEL-2 it was 18 µM (inactive); in the assay on SK-OV-3, 18.3 µM (inactive); in the assay with SNB-75, 8.45 µM (inactive); in the assay on SR, > 100 µM (inactive). Also, the GI50 with T47D is 32.1 µM (inactive); with UACC-62, 22.4 µM (inactive).
Regarding `CC1=C/C(=C(/c2ccc(O)c(C)c2)c2ccccc2C(=O)O)C=CC1=O`, the GI50 in the assay with A549 is 19.5 µM (inactive); in the assay with ACHN, 18.3 µM (inactive); in the assay on CAKI-1, 17.6 µM (inactive); in the assay with CCRF-CEM, 21.8 µM (inactive); in the assay on HCT-116, 18.2 µM (inactive); in the assay with KM12 it was 19.3 µM (inactive). Besides, the GI50 in the assay on LOX IMVI was 20.7 µM (inactive); in the assay with MCF7, 19.7 µM (inactive); in the assay with MDA-MB-231, 19.9 µM (inactive); in the assay on MOLT-4, 21.9 µM (inactive); in the assay on Malme-3M it was 24.9 µM (inactive); with NCI-H23 it was 20.2 µM (inactive). The GI50 in the assay with NCI-H522 is 21.5 µM (inactive); in the assay with OVCAR-8, 20 µM (inactive); in the assay on SK-MEL-2, 20.6 µM (inactive); in the assay on SK-OV-3, 19.2 µM (inactive); with SNB-75, 18.5 µM (inactive); with SR it was 20.7 µM (inactive). Besides, the GI50 in the assay with T47D is 26.8 µM (inactive); with UACC-62, 17.2 µM (inactive).
Regarding `O=C1C(c2c(O)[nH]c3ccc(Br)cc23)=Nc2ccc(Br)cc21`, the GI50 was 32.7 µM (inactive) in the assay on A549; > 100 µM (inactive) with ACHN; > 100 µM (inactive) with CAKI-1; 63.5 µM (inactive) in the assay with CCRF-CEM; 18 µM (inactive) in the assay with HCT-116; 44.2 µM (inactive) in the assay with KM12. Besides, the GI50 in the assay with LOX IMVI is 62.1 µM (inactive); in the assay with MCF7, 13.6 µM (inactive); in the assay on MDA-MB-231 it was 20 µM (inactive); with MOLT-4, 45 µM (inactive); in the assay on Malme-3M, 46 µM (inactive); in the assay with NCI-H23 it was 27.5 µM (inactive). Further, the GI50 with NCI-H522 was 83 µM (inactive); in the assay with OVCAR-8, 27.1 µM (inactive); in the assay on SK-MEL-2, > 100 µM (inactive); in the assay with SK-OV-3, 28.9 µM (inactive); with SNB-75, 19.7 µM (inactive); in the assay with SR, 32.1 µM (inactive). Besides, the GI50 with T47D and in the assay on UACC-62 was > 100 µM (inactive) throughout.
Turning to `Cn1c(CC(O)c2nc3ccccc3n2C)nc2ccccc21` (stereo not given), the GI50 is > 56.6 µM (inactive) in the assay with A549; > 23.6 µM (inactive) in the assay on ACHN; > 100 µM (inactive) in the assay with CAKI-1; 2.65 µM (inactive) in the assay with CCRF-CEM; > 23.7 µM (inactive) with HCT-116; > 100 µM (inactive) with KM12. In addition, the GI50 with LOX IMVI was > 28.8 µM (inactive); with MCF7 it was > 15.9 µM (inactive); with MDA-MB-231, > 34.8 µM (inactive); in the assay on MOLT-4, > 13.7 µM (inactive); with Malme-3M it was > 21.1 µM (inactive); with NCI-H23, > 17.6 µM (inactive). Besides, the GI50 was > 6.1 µM (inactive) in the assay with NCI-H522; > 27 µM (inactive) in the assay with OVCAR-8; > 31.3 µM (inactive) with SK-MEL-2; > 30.4 µM (inactive) in the assay on SK-OV-3; > 100 µM (inactive) with SNB-75; > 100 µM (inactive) in the assay with SR. Also, the results for the GI50 with T47D and in the assay on UACC-62 were > 8.57 µM (inactive) and > 34.8 µM (inactive), respectively.
For `CCCCC1C=Cn2c(=O)oc3c(OC(C)C)c(C)c(O)c1c32` (stereo not given), the GI50 in the assay on A549 is 1.84 µM (inactive); with ACHN, 0.413 µM (active); in the assay with CAKI-1, 0.409 µM (active); in the assay on CCRF-CEM, 1.68 µM (inactive); in the assay on HCT-116, 0.977 µM (active); with KM12, 1.49 µM (inactive). The GI50 with LOX IMVI was 0.566 µM (active); with MCF7 it was 0.509 µM (active); in the assay on MDA-MB-231, 1.87 µM (inactive); with MOLT-4 it was 0.824 µM (active); in the assay on Malme-3M, 1.47 µM (inactive); in the assay on NCI-H23 it was 1.48 µM (inactive). For the same molecule, the GI50 in the assay with NCI-H522 was 1.24 µM (inactive); in the assay on OVCAR-8 it was 1.73 µM (inactive); in the assay on SK-MEL-2 it was 1.66 µM (inactive); with SK-OV-3 it was 3.14 µM (inactive); with SNB-75, 0.466 µM (active); with SR, 0.548 µM (active). Moreover, the GI50 with T47D was 1.85 µM (inactive); in the assay on UACC-62 it was 0.929 µM (active).
For `O=C1C=CC(=O)c2c1ccc1c3ccccc3n(Cc3cccc([N+](=O)[O-])c3)c21`, the GI50 was > 100 µM (inactive) in the assay on A549; 18.2 µM (inactive) in the assay with ACHN; 14.7 µM (inactive) in the assay on CAKI-1; 8.36 µM (inactive) in the assay with CCRF-CEM; 24.5 µM (inactive) in the assay on HCT-116; > 100 µM (inactive) in the assay with KM12. The GI50 is 33.9 µM (inactive) in the assay with LOX IMVI; 22.3 µM (inactive) with MCF7; 24.2 µM (inactive) with MDA-MB-231; 8.65 µM (inactive) with MOLT-4; 19.5 µM (inactive) in the assay with Malme-3M; 21.7 µM (inactive) with NCI-H23. Moreover, the GI50 was 18.8 µM (inactive) with NCI-H522; 30.4 µM (inactive) in the assay on OVCAR-8; 39.8 µM (inactive) with SK-MEL-2; > 100 µM (inactive) with SK-OV-3; > 78.2 µM (inactive) in the assay on SNB-75; 12.8 µM (inactive) with SR. Further, the GI50 in the assay on T47D is 26.4 µM (inactive); in the assay with UACC-62 it was > 46 µM (inactive).
Consider `CCOC(=O)/C=C(/C(=O)OCC)n1ccc(=O)n(/C(=C/C(=O)OCC)C(=O)OCC)c1=O`, for which the GI50 in the assay with A549 is 17.3 µM (inactive); with ACHN it was 3 µM (inactive); with CAKI-1, 1.66 µM (inactive); with CCRF-CEM, 1.37 µM (inactive); in the assay with HCT-116, 2.39 µM (inactive); in the assay with KM12, 17.2 µM (inactive). For the same molecule, the GI50 in the assay on LOX IMVI is 5.19 µM (inactive); in the assay with MCF7 it was 6.4 µM (inactive); with MDA-MB-231, 16.6 µM (inactive); with MOLT-4 it was 1.76 µM (inactive); with Malme-3M, 2.79 µM (inactive); with NCI-H23, 16 µM (inactive). For the same molecule, the GI50 in the assay on NCI-H522 is 1.61 µM (inactive); in the assay with OVCAR-8, 8.79 µM (inactive); in the assay on SK-MEL-2, 12.7 µM (inactive); in the assay on SK-OV-3 it was 23.6 µM (inactive); with SNB-75 it was 16.9 µM (inactive); in the assay on SR it was 5.28 µM (inactive). The values for the GI50 with T47D and in the assay on UACC-62 were 4.48 µM (inactive) and 14.8 µM (inactive), respectively.
With `CC(=O)OCC1C(=O)OCC1C(=O)N1Cc2cc3ccccc3nc2C1` (stereo not given), the GI50 in the assay with A549 was 15.3 µM (inactive); with ACHN, 1.36 µM (inactive); in the assay on CAKI-1 it was 0.955 µM (active); in the assay with CCRF-CEM, 0.488 µM (active); with HCT-116, 1.27 µM (inactive); in the assay with KM12, 16.2 µM (inactive). The GI50 in the assay on LOX IMVI was 2.45 µM (inactive); with MCF7, 1.48 µM (inactive); in the assay with MDA-MB-231, 6.4 µM (inactive); in the assay on MOLT-4, 1.44 µM (inactive); with Malme-3M, 1.46 µM (inactive); in the assay on NCI-H23, 3.39 µM (inactive). Also, the GI50 in the assay with NCI-H522 is 0.714 µM (active); in the assay with OVCAR-8 it was 3.2 µM (inactive); in the assay on SK-MEL-2, 8.15 µM (inactive); with SK-OV-3, 16.7 µM (inactive); in the assay on SNB-75, 4.58 µM (inactive); with SR it was 1.49 µM (inactive). Moreover, the GI50 in the assay on T47D is 1.15 µM (inactive); in the assay with UACC-62, 3.46 µM (inactive).
Turning to `CC(=O)O[C@H]1C(=O)[C@@]2(C)[C@H]([C@H](OC(=O)c3ccc(F)cc3)[C@]3(O)C[C@H](OC(=O)[C@H](O)[C@@H](NC(=O)c4ccccc4)c4ccccc4)C(C)=C1C3(C)C)[C@]1(OC(C)=O)CO[C@@H]1C[C@@H]2O`, the GI50 was 0.082 µM (active) with A549; 0.802 µM (active) in the assay with ACHN; 3.82 µM (inactive) in the assay with CAKI-1; 0.00819 µM (active) with CCRF-CEM; 0.00608 µM (active) with HCT-116; 0.0113 µM (active) in the assay with KM12. In addition, the GI50 in the assay with LOX IMVI was 0.00828 µM (active); in the assay on MCF7, 0.00334 µM (active); with MDA-MB-231 it was 0.219 µM (active); in the assay on MOLT-4 it was 0.0146 µM (active); with Malme-3M, 0.0127 µM (active); with NCI-H23, 0.124 µM (active). Besides, the GI50 was 0.0116 µM (active) in the assay on NCI-H522; 0.0181 µM (active) in the assay with OVCAR-8; 0.0597 µM (active) with SK-MEL-2; 0.0159 µM (active) in the assay on SK-OV-3; 0.0189 µM (active) with SNB-75; 0.0108 µM (active) in the assay on SR. In addition, the GI50 with T47D was 0.00931 µM (active); in the assay on UACC-62 it was 0.0199 µM (active).
As to `CC(=O)OCC1OC(n2c3c(c(-c4ccco4)c(C#N)c2=S)CCCC3)C(OC(C)=O)C(OC(C)=O)C1OC(C)=O` (stereo not given), the GI50 is 30 µM (inactive) with A549; 17.8 µM (inactive) in the assay with ACHN; 29.7 µM (inactive) in the assay with CAKI-1; > 10 µM (inactive) in the assay with CCRF-CEM; 21.3 µM (inactive) in the assay with HCT-116; > 31.6 µM (inactive) in the assay with KM12. Further, the GI50 in the assay on LOX IMVI was > 31.6 µM (inactive); in the assay with MCF7 it was > 76.2 µM (inactive); in the assay with MDA-MB-231, 29.6 µM (inactive); in the assay on MOLT-4 it was > 31.6 µM (inactive); in the assay with Malme-3M, > 31.6 µM (inactive); in the assay on NCI-H23 it was > 20.2 µM (inactive). The GI50 in the assay on NCI-H522 is 16.3 µM (inactive); in the assay on OVCAR-8, 31.6 µM (inactive); in the assay on SK-MEL-2, 17.9 µM (inactive); in the assay with SK-OV-3 it was > 10 µM (inactive); in the assay on SNB-75, 8.2 µM (inactive); with SR, > 31.6 µM (inactive). For the same molecule, the GI50 was > 31.6 µM (inactive) with T47D and > 10 µM (inactive) with UACC-62.
